ChEMBL document CHEMBL4811250, “Discovery and Optimization of 2H-1λ2-Pyridin-2-one Inhibitors of Mutant Isocitrate Dehydrogenase 1 for the Treatment of Cancer” (J Med Chem, 2021)

Legend:
[1] = target: Isocitrate dehydrogenase [NADP] cytoplasmic (Homo sapiens, UniProt O75874, R132C); assay: Inhibition of IDH1 R132C mutant (unknown origin) assessed as reduction in NADPH consumption using alpha-KG as substrate incubated for 5 mins by diaphorase/resazurin-coupled system
[2] = tested on: Isocitrate dehydrogenase [NADP] cytoplasmic (Homo sapiens), O75874 [R132H]; assay: Inhibition of IDH1 R132H mutant (unknown origin) assessed as reduction in NADPH consumption using alpha-KG as substrate at 38 uM incubated for 5 mins by diaphorase/resazurin-coupled system relative to control
[3] = tested on: Isocitrate dehydrogenase [NADP] cytoplasmic (Homo sapiens), O75874 [R132C]; assay: Inhibition of IDH1 R132C mutant (unknown origin) assessed as reduction in NADPH consumption using alpha-KG as substrate at 38 uM incubated for 5 mins by diaphorase/resazurin-coupled system relative to control
[4] = target: Isocitrate dehydrogenase [NADP] cytoplasmic (Homo sapiens, UniProt O75874, R132H); assay: Inhibition of IDH1 R132H mutant (unknown origin) assessed as reduction in NADPH consumption using alpha-KG as substrate incubated for 5 mins by diaphorase/resazurin-coupled system
Sequence of Isocitrate dehydrogenase [NADP] cytoplasmic (Homo sapiens, UniProt O75874, R132H) (O75874 2-414 R132H limits assumed): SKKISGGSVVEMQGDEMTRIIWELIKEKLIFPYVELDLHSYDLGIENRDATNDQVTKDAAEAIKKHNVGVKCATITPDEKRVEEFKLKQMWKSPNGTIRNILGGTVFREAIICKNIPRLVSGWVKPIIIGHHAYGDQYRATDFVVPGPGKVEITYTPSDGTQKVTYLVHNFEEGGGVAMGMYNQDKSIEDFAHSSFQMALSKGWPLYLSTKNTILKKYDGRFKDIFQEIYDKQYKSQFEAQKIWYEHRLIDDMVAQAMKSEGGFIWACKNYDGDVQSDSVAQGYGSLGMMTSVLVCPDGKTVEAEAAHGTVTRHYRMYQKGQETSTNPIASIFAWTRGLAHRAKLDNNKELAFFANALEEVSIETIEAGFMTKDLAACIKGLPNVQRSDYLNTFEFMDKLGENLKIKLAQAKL

Sequence of Isocitrate dehydrogenase [NADP] cytoplasmic (Homo sapiens), O75874 [R132C] (O75874 whole entry R132C): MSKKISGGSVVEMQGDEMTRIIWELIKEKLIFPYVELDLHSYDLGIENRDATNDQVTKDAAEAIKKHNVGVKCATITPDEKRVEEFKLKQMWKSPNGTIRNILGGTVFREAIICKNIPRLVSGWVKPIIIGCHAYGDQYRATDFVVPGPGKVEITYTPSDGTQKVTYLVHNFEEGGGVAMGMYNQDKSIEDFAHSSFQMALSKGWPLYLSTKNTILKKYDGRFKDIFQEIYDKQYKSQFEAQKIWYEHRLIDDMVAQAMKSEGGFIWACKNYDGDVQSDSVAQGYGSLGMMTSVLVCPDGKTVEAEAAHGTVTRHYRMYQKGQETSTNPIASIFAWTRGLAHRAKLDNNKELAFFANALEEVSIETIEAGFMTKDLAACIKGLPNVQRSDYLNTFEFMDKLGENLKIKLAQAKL
Sequence of Isocitrate dehydrogenase [NADP] cytoplasmic (Homo sapiens), O75874 [R132H] (O75874 whole entry R132H): as the sequence (O75874 whole entry R132C) above, with C132H counted along it
Sequence of Isocitrate dehydrogenase [NADP] cytoplasmic (Homo sapiens, UniProt O75874, R132C) (O75874 2-414 R132C limits assumed): as the sequence (O75874 2-414 R132H limits assumed) above, with H131C counted along it

| SMILES | IC50 [1] | inhibition [2] | inhibition [3] | IC50 [4] |
| --- | --- | --- | --- | --- |
| COc1ccc(OC)c(-n2c3c(cc(-c4cn(-c5ccc(Cl)cc5)cn4)c2=O)C(=O)CC(C)(C)C3)c1 | > 38000 nM | 41% |  |  |
| COc1ccc(OC)c(-n2c3c(cc(-c4nc5ccc(Cl)cc5s4)c2=O)C(=O)CC(C)(C)C3)c1 | 2500 nM | 50% | 94% |  |
| CCc1cccc(CC)c1-n1c(C)c(C(=O)NCCNC)cc(-c2nc(-c3ccc(Cl)cc3)cs2)c1=O | 320 nM | 101% | 96% | 870 nM |
| COc1ccc(OC)c(-n2c3c(cc(-c4nc(-c5ccc(Cl)cc5)cs4)c2=O)C=CC(C)(C)C3)c1 | 1700 nM | 96% | 76% | 3000 nM |
| CCc1cccc(CC)c1-n1c(C)c(C(=O)NCCN)cc(-c2nc(-c3ccc(Cl)cc3)cs2)c1=O | 2000 nM | 97% | 89% | 380 nM |
| COc1ccc(OC)c(-n2c(C)ccc(-c3nc(-c4ccc(Cl)cc4)cs3)c2=O)c1 | > 38000 nM |  |  | > 38000 nM |
| CCc1ccc(C)cc1-n1c(C=C(C)C)c(C(=O)N2CCNCC2)cc(-c2nc(-c3ccc(Cl)cc3)cs2)c1=O | 110 nM |  |  | 44 nM |
| CCc1cccc(CC)c1-n1c(C=C(C)C)c(C(=O)N2CCNC(C(F)(F)F)C2)cc(-c2nc(-c3ccc(Cl)cc3)cs2)c1=O (centres undefined) | 130 nM |  |  | 360 nM |
| COc1cccc(OC)c1-n1c2c(cc(-c3nc(-c4ccc(Cl)cc4)cs3)c1=O)C(=O)CC(C)(C)C2 | 1600 nM | 87% | 75% | 2400 nM |
| COc1ccc(-n2c3c(cc(-c4nc(-c5ccc(Cl)cc5)cs4)c2=O)C(=O)CC(C)(C)C3)c(OC)c1 | > 38000 nM |  |  | > 38000 nM |
| CCc1cccc(CC)c1-n1c(CC2CCOC2)c(C(=O)N2CCNCC2)cc(-c2nc(-c3ccc(Cl)cc3)cs2)c1=O (centres undefined) | 130 nM | 105% | 91% | 75 nM |
| CCOc1cccc(OCC)c1-n1c2c(cc(-c3nc(-c4ccc(Cl)cc4)cs3)c1=O)C(=O)CC(C)(C)C2 | 160 nM | 76% | 86% | 390 nM |
| CC(C)Oc1ccccc1-n1c2c(cc(-c3nc(-c4ccc(Cl)cc4)cs3)c1=O)C(=O)CC(C)(C)C2 | 470 nM | 80% | 77% | 1100 nM |
| CCOC(=O)c1cc(-c2nc(-c3ccc(Cl)cc3)cs2)c(=O)n(-c2c(CC)cccc2CC)c1-c1ccccc1 | > 38000 nM |  |  | > 38000 nM |
| CCc1cccc(CC)c1-n1c(C)c(C(=O)NCCCNC)cc(-c2nc(-c3ccc(Cl)cc3)cs2)c1=O | 910 nM | 104% | 95% | 1000 nM |
| COc1ccc(OC)c(-n2c3c(cc(-n4cc(-c5ccccc5)cn4)c2=O)C(=O)CC(C)(C)C3)c1 | > 38000 nM | 31% |  |  |
| CCc1cccc(CC)c1-n1c(C)c(C(=O)NCC(N)=O)cc(-c2nc(-c3ccc(Cl)cc3)cs2)c1=O | 3800 nM | 105% | 77% | 1600 nM |
| CCc1cccc(CC)c1-n1c(C)c(C(=O)N2CCNCC2)cc(-c2nc(-c3ccc(Cl)cc3)cs2)c1=O | 1500 nM | 103% | 93% | 210 nM |
| CCc1cccc(CC)c1-n1c2c(cc(-c3nc(-c4ccc(Cl)cc4)cs3)c1=O)C(=O)CC(C)(C)C2 | 240 nM | 89% | 82% | 690 nM |
| COc1ccc(OC)c(-n2c3c(cc(-c4cccc(-c5ccc(Cl)cc5)c4)c2=O)C(=O)CC(C)(C)C3)c1 | > 38000 nM |  |  | > 38000 nM |
| CCOc1ccccc1-n1c2c(cc(-c3nc(-c4ccc(Cl)cc4)cs3)c1=O)C(=O)CC(C)(C)C2 | 410 nM | 88% | 81% |  |
| CCc1cccc(CC)c1-n1c(C)c(C(=O)N2CCOCC2)cc(-c2nc(-c3ccc(Cl)cc3)cs2)c1=O | 4100 nM | 82% | 71% | 4200 nM |
| CCc1ccccc1-n1c2c(cc(-c3nc(-c4ccc(Cl)cc4)cs3)c1=O)C(=O)CC(C)(C)C2 | 870 nM | 91% | 83% | 2000 nM |
| CCc1cccc(C)c1-n1c2c(cc(-c3nc(-c4ccc(Cl)cc4)cs3)c1=O)C(=O)CC(C)(C)C2 | 500 nM | 89% | 86% | 790 nM |
| COc1ccc(OC)c(-n2cccc(-c3nc(-c4ccc(Cl)cc4)cs3)c2=O)c1 | > 38000 nM |  |  | > 38000 nM |
| CCc1cccc(CC)c1-n1c(CCC(F)(F)F)c(C(=O)N2CCNCC2)cc(-c2nc(-c3ccc(Cl)cc3)cs2)c1=O | 600 nM | 101% | 82% | 240 nM |

| SMILES | IC50 [1] | inhibition [2] | inhibition [3] | IC50 [4] |
| --- | --- | --- | --- | --- |
| CCc1cccc(CC)c1-n1c(C=C(C)C)c(C(=O)N2CC3(CNC3)C2)cc(-c2nc(-c3ccc(Cl)cc3)cs2)c1=O | 64 nM |  |  | 240 nM |
| CCc1cccc(CC)c1-n1c(C=C(C)C)c(C(=O)N2CCNC(CC)C2)cc(-c2nc(-c3ccc(Cl)cc3)cs2)c1=O (centres undefined) | 72 nM |  |  | 100 nM |
| CC1(C)CC(=O)c2cc(-c3nc(-c4ccc(Cl)cc4)cs3)c(=O)n(-c3ccccc3OC(F)(F)F)c2C1 | 280 nM | 98% | 78% | 570 nM |
| COc1ccc(OC)c(-n2c3c(cc(-c4nc(-c5ccc(Cl)cc5)cs4)c2=O)C(=O)CC(C)(C)C3)c1 | 1000 nM | 84% | 85% | 1600 nM |
| COC(=O)c1ccsc1-n1c2c(cc(-c3nc(-c4ccc(Cl)cc4)cs3)c1=O)C(=O)CC(C)(C)C2 | 470 nM | 94% | 83% | 470 nM |
| CCc1cccc(CC)c1-n1c(C)c(C(=O)OC)cc(-c2nc(-c3ccc(Cl)cc3)cs2)c1=O | > 38000 nM |  |  | > 38000 nM |
| CCc1ccccc1-n1c(C=C(C)C)c(C(=O)N2CCNCC2)cc(-c2nc(-c3ccc(Cl)cc3)cs2)c1=O | 160 nM |  |  | 56 nM |
| CCc1cccc(CC)c1-n1c(C=C(C)C)c(C(=O)N2CCNC(CO)C2)cc(-c2nc(-c3ccc(Cl)cc3)cs2)c1=O (centres undefined) | 60 nM |  |  | 49 nM |
| COc1ncccc1-n1c2c(cc(-c3nc(-c4ccc(Cl)cc4)cs3)c1=O)C(=O)CC(C)(C)C2 | 1300 nM | 97% | 80% | 1000 nM |
| CCOc1ccc(OCC)c(-n2c3c(cc(-c4nc(-c5ccc(Cl)cc5)cs4)c2=O)C(=O)CC(C)(C)C3)c1 | 64 nM | 85% | 75% | 160 nM |
| CC(C)=Cc1c(C(=O)N2CCNCC2)cc(-c2nc(-c3ccc(Cl)cc3)cs2)c(=O)n1-c1ccccc1 | 3200 nM |  |  | 330 nM |
| CCc1cccc(CC)c1-n1c(C=C(C)C)c(C(=O)N2CCNC(C(N)=O)C2)cc(-c2nc(-c3ccc(Cl)cc3)cs2)c1=O (centres undefined) | 42 nM |  |  | 94 nM |
| COc1ccc(OC)c(-n2c3c(cc(-c4ncc(-c5ccc(Cl)cc5)s4)c2=O)C(=O)CC(C)(C)C3)c1 | > 38000 nM |  |  | > 38000 nM |
| CCc1cccc(CC)c1-n1c(C(C)C)c(C(=O)N2CCNCC2)cc(-c2nc(-c3ccc(Cl)cc3)cs2)c1=O | 390 nM | 102% | 92% | 420 nM |
| COc1cccc(C(=O)O)c1-n1c2c(cc(-c3nc(-c4ccc(Cl)cc4)cs3)c1=O)C(=O)CC(C)(C)C2 | 2000 nM | 102% | 108% | 910 nM |
| CC1(C)CC(=O)c2cc(-c3nc(-c4ccc(Cl)cc4)cs3)c(=O)n(C3CCCCC3)c2C1 | > 38000 nM |  |  | > 38000 nM |
| CCc1cccc(C)c1-n1c(C=C(C)C)c(C(=O)N2CCNCC2)cc(-c2nc(-c3ccc(Cl)cc3)cs2)c1=O | 2200 nM |  |  | 270 nM |
| CCCC1CN(C(=O)c2cc(-c3nc(-c4ccc(Cl)cc4)cs3)c(=O)n(-c3c(CC)cccc3CC)c2C=C(C)C)CCN1 (centres undefined) | 82 nM |  |  | 130 nM |
| CCc1cccc(CC)c1-n1c(C)c(C(=O)NCC(C)C)cc(-c2nc(-c3ccc(Cl)cc3)cs2)c1=O | 810 nM |  | 56% | > 38000 nM |
| CCc1cccc(Cl)c1-n1c(C=C(C)C)c(C(=O)N2CCNCC2)cc(-c2nc(-c3ccc(Cl)cc3)cs2)c1=O | 55 nM |  |  | 44 nM |
| CCc1cccc(CC)c1-n1c(C)c(C(=O)NCC(=O)O)cc(-c2nc(-c3ccc(Cl)cc3)cs2)c1=O | 11000 nM | 106% | 87% | 1200 nM |
| CCc1cccc(CC)c1-n1c(C)c(C(=O)N(C)C)cc(-c2nc(-c3ccc(Cl)cc3)cs2)c1=O | 2000 nM | 98% | 86% | 1200 nM |
| COc1ccc(C(=O)O)cc1-n1c2c(cc(-c3nc(-c4ccc(Cl)cc4)cs3)c1=O)C(=O)CC(C)(C)C2 | 14000 nM | 108% | 86% | 12000 nM |
| CCc1cccc(CC)c1-n1c(C)c(C(=O)NCCO)cc(-c2nc(-c3ccc(Cl)cc3)cs2)c1=O | 2000 nM | 104% | 96% | 420 nM |
| COc1ccc(OC)c(-n2c3c(cc(-c4ccc(-c5ccccc5)cc4)c2=O)C(=O)CC(C)(C)C3)c1 | > 38000 nM |  |  | > 38000 nM |
| COc1ccc(OC)c(-n2c3c(cc(C(=O)NCc4ccc(Cl)cc4)c2=O)C(=O)CC(C)(C)C3)c1 | > 38000 nM | 35% |  |  |
